In patent publication US12565488B2, “Inhibitors of influenza virus replication” (COCRYSTAL PHARMA, INC., priority 2018, dated 2026):

tested on: Influenza type A (strain A/PR/8/34, ATCC VR-95); assay: Influenza antiviral assay: inhibition of virus-induced cytopathic effects (CPE) in MDCK cells, XTT dye reduction; type: cell-based; conditions: Influenza A (H1N1) replication in MDCK cells, CPE reduction by XTT at 4 days post-infection; read-out: Influenza H1N1 affinity, EC50

SMILES | EC50
O=C(NCC1c2ccccc2COc2ccccc21)c1c(O)c(=O)ccn1CC1c2ccccc2COc2ccccc21 (stereo not shown) [Compound 102] | > 100 µM
O=C(NCC1c2ccccc2COc2ccccc21)c1c(O)c(=O)ccn1CC1c2ccccc2COc2ccccc21 (stereo not shown) [Compound 106] | > 100 µM
O=C(NCC1c2ccccc2COc2ccccc21)c1c(O)c(=O)ccn1CC1c2ccccc2COc2ccccc21 (stereo not shown) [Compound 107] | > 100 µM
O=C(NCC1c2ccccc2COc2ccccc21)c1c(O)c(=O)ccn1CC1c2ccccc2COc2ccccc21 (stereo not shown) [Compound 108] | 1 to 10 µM

same assay, conditions: Influenza A virus, H1N1 / PR/8, MDCK, 96 h, Influenza A (H1N1) replication in MDCK cells, CPE reduction by XTT at 4 days post-infection; read-out: Influenza H1N1 affinity, EC50

SMILES | EC50
O=C(O)c1c(O)c(=O)ccn1NC1c2ccc(F)c(F)c2COc2c1ccc(F)c2F (stereo not shown) [Compound 80] | 1 to 10 µM
O=C(O)c1c(O)c(=O)ccn1NC(c1ccccc1)c1ccc2ccccc2c1 (stereo not shown) [Compound 82] | 10 to 100 µM
O=C(O)c1c(O)c(=O)ccn1NC1c2ccc(C(F)(F)F)cc2COc2ccccc21 (stereo not shown) [Compound 86] | > 100 µM
O=C(O)c1c(O)c(=O)ccn1NC1c2ccccc2CSc2c1ccc(Cl)c2Cl (stereo not shown) [Compound 87] | 1 to 10 µM
O=C(O)c1c(O)c(=O)ccn1NC1c2ccccc2CSc2cc(F)c(F)cc21 (stereo not shown) [Compound 88] | 10 to 100 µM
O=C(O)c1c(O)c(=O)ccn1NC1c2ccc(F)c(F)c2CSc2c1ccc(F)c2F (stereo not shown) [Compound 93] | 1 to 10 µM
O=C(O)c1c(O)c(=O)ccn1NC1c2ccccc2SCc2c1ccc(Cl)c2Cl (stereo not shown) [Compound 94] | 0.1 to 1 µM
O=C(O)c1c(O)c(=O)ccn1NC1c2cc(F)c(F)cc2CSc2ccccc21 (stereo not shown) [Compound 95] | 1 to 10 µM
O=C(O)c1c(O)c(=O)ccn1NC1c2ccccc2SCc2c1ccc(F)c2Br (stereo not shown) [Compound 96] | 0.1 to 1 µM
O=C(O)c1c(O)c(=O)ccn1NC1c2ccccc2SCc2c1ccc(Br)c2Cl (stereo not shown) [Compound 97] | 1 to 10 µM
O=C(O)c1c(O)c(=O)ccn1NC1c2ccccc2OCc2c1ccc(Cl)c2Cl (stereo not shown) [Compound 99] | 1 to 10 µM
O=C(O)c1c(O)c(=O)ccn1NC(c1ccc2ccccc2c1)c1ccc2ccccc2c1 [Compound 100] | > 100 µM
CNC(=O)c1cn(NC2c3ccccc3COc3ccccc32)c(C(=O)NC)c(O)c1=O (stereo not shown) [Compound 103] | > 100 µM
CCOC(=O)c1cn(NC2c3ccccc3COc3ccccc32)c(C(=O)OCC)c(O)c1=O (stereo not shown) [Compound 104] | > 100 µM
O=C(O)c1c(O)c(=O)ccn1NC(c1ccc(F)c(F)c1)c1ccc(F)c(F)c1 [Compound 105] | > 100 µM
O=C(O)c1cn(NC2c3ccccc3COc3ccccc32)c(C(=O)O)c(O)c1=O (stereo not shown) [Compound 109] | 10 to 100 µM
O=C(O)c1c(O)c(=O)ccn1NC1c2ccc(C(F)(F)F)cc2COc2cc(C(F)(F)F)ccc21 (stereo not shown) [Compound 110] | > 100 µM

SMILES | EC50
O=C(O)c1c(O)c(=O)ccn1NC(c1ccccc1)c1cccc2ccccc12 (stereo not shown) [Compound 112] | 10 to 100 µM
CC(C)c1ccc2c(c1)C(Nn1ccc(=O)c(O)c1C(=O)O)c1ccc(F)c(F)c1CS2 (stereo not shown) [Compound 113] | > 100 µM
O=C(O)c1c(O)c(=O)ccn1NC1c2ccc(-c3ccccc3)cc2SCc2c1ccc(F)c2F (stereo not shown) [Compound 114] | 10 to 100 µM
COc1ccc2c(c1)C(Nn1ccc(=O)c(O)c1C(=O)O)c1ccccc1CS2 (stereo not shown) [Compound 115] | > 100 µM
O=C(O)c1c(O)c(=O)ccn1NC1c2cc(OC(F)(F)F)ccc2SCc2c1ccc(F)c2F (stereo not shown) [Compound 116] | 10 to 100 µM
O=C(O)c1c(O)c(=O)ccn1NC1c2cc(Cl)c(Cl)cc2CSc2ccccc21 (stereo not shown) [Compound 117] | 10 to 100 µM
O=C(O)c1c(O)c(=O)ccn1CC1c2ccccc2SCc2c1ccc(F)c2F (stereo not shown) [Compound 118] | > 100 µM
O=C(O)c1cn(NC2c3ccccc3SCc3c2ccc(F)c3F)cc(O)c1=O (stereo not shown) [Compound 120] | 1 to 10 µM
O=C(O)c1c(O)c(=O)ccn1NC1c2ccc(F)c(F)c2CSc2c(-c3ccccc3)cccc21 (stereo not shown) [Compound 121] | > 100 µM
O=C(O)c1c(O)c(=O)ccn1NC1c2ccc(F)c(F)c2CSc2c(-c3ccc(F)cc3)cccc21 (stereo not shown) [Compound 122] | > 100 µM
O=C(O)c1c(O)c(=O)ccn1NC1c2ccc(-c3ccc(F)cc3)cc2SCc2c1ccc(F)c2F (stereo not shown) [Compound 123] | 10 to 100 µM
O=C(O)c1c(O)c(=O)ccn1NC1c2ccccc2S(=O)(=O)Cc2c1ccc(F)c2F (stereo not shown) [Compound 126] | 10 to 100 µM
NC(=O)c1c(O)c(=O)ccn1NC1c2ccccc2SCc2c1ccc(F)c2F (stereo not shown) [Compound 127] | 1 to 10 µM
O=C(O)c1c(O)c(=O)ccn1NC1c2ccccc2SCc2c1cccc2N1CCCC1=O (stereo not shown) [Compound 128] | 1 to 10 µM
O=C(NO)c1c(O)c(=O)ccn1NC1c2ccccc2SCc2c1ccc(F)c2F (stereo not shown) [Compound 129] | 1 to 10 µM
O=C(NOCc1ccccc1)c1c(O)c(=O)ccn1NC1c2ccccc2SCc2c1ccc(F)c2F (stereo not shown) [Compound 130, N-(benzyloxy)-1-((7,8-difluoro-6,11-dihydrodibenzo[b,e]thiepin-11-yl)amino)-3-hydroxy-4-oxo-1,4-dihydropyridine-2-carboxamide] | 1 to 10 µM
